These results are taken from patent publication US8519128B2, “Pyripyropene derivatives having an ACAT2-inhibiting activity” (The Kitasato Institute, priority 2007, dated 2013).

What is called IC50 is the point on the concentration scale where inhibition reaches its midpoint. Read a high IC50 as a need for much substance.

The target of this assay is T1, ACAT 2 (Mus musculus, UniProt O88908).
T1 construct: The source of ACAT 2 enzyme used was a membrane fraction derived from mouse liver microsome; from tissue; host or cells: mouse liver (microsome fraction)
T1 sequence (O88908 1-525): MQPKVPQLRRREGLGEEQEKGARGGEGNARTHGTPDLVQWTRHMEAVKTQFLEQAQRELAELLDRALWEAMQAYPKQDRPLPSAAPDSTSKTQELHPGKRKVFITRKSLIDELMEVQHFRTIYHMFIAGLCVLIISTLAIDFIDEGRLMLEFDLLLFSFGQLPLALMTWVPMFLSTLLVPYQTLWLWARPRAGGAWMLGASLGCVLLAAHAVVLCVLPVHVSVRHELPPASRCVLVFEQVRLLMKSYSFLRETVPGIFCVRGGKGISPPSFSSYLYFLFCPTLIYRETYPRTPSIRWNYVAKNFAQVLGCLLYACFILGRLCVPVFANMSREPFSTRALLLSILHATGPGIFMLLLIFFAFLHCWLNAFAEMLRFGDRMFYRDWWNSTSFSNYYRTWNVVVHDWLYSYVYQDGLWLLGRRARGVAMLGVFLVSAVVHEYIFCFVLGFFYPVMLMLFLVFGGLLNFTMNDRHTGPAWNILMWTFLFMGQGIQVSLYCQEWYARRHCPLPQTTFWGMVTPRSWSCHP
Put plainly: ACAT-inhibiting activity, mouse liver microsome membrane fraction, [14C]oleoyl-CoA. Type of assay: biochemical. To be noted: for Specific activity: (inhibitory activity of test compound)/(inhibitory activity of pyripyropene A): relative to pyripyropene A. The procedure, abridged: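 Enzyme source: mouse liver microsomal membrane fraction (100000×g pellet) at 5 mg/ml protein in 50 mM Tris-HCl pH 7.8, 1 mM EDTA, 1 mM PMSF; substrate [14C]oleoyl-CoA. Chloroform-extracted lipids resolved by silica TLC in hexane/diethyl ether/acetic acid (70:30:1).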

Where [1] appears, read: mouse liver microsome, 5 minutes at 37° C.

Like-named read-outs stand apart in the source and are kept apart here.

With `CC(=O)OCC1(C)C2C[C@H](OC(=O)c3cccc(C#N)c3)[C@@]3(C)Oc4cc(-c5cccnc5)oc(=O)c4[C@H](O)C3[C@@]2(C)CC[C@@H]1OC(C)=O` (stereo partly drawn) [PRD 016, 7-m-cyanobenzoyl-7-deacetylpyripyropene A], the “Specific activity: (inhibitory activity of test compound)/(inhibitory activity of pyripyropene A)” value is “+++ (50 > specific activity > 10)”. This molecule showed an IC50 under setting [1] of 10 to 100 nM.

In the case of `CC12CO[Si](C(C)(C)C)(C(C)(C)C)O[C@H]1CC[C@@]1(C)C2C[C@H](OC(=O)c2ccc(C#N)cc2)[C@@]2(C)Oc3cc(-c4cccnc4)oc(=O)c3[C@H](O)C12` (stereo partly drawn) [PRD 059, 7-O-p-cyanobenzoyl-1,11-O-(di-tert-butylsilylene)-1,7,11-trideacetylpyripyropene A], the “Specific activity: (inhibitory activity of test compound)/(inhibitory activity of pyripyropene A)” value is “+ (5 > specific activity > 1)”. For the same molecule, under setting [1], the IC50 lay within 100 to 1000 nM.

In the case of `CC(=O)OCC1(C)C2C[C@@H](Cl)[C@@]3(C)Oc4cc(-c5cccnc5)oc(=O)c4[C@H](O)C3[C@@]2(C)CC[C@@H]1OC(C)=O` (stereo partly drawn) [PRD 065, 7-(R)-chloro-7-(S)-deacetylpyripyropene A], the IC50 lay in the range of 100 to 1000 nM and the “Specific activity: (inhibitory activity of test compound)/(inhibitory activity of pyripyropene A)” value is “+ (5 > specific activity > 1)”.

As for `CC12COC(c3ccccc3)O[C@H]1CC[C@@]1(C)C2C[C@H](OC(=O)c2cccc(Br)c2)[C@@]2(C)Oc3cc(-c4cccnc4)oc(=O)c3[C@H](O)C12` (stereo partly drawn) [PRD 052, 1,11-O-benzylidene-7-O-m-bromobenzoyl-1,7,11-trideacetylpyripyropene A], the “Specific activity: (inhibitory activity of test compound)/(inhibitory activity of pyripyropene A)” value is “++ (10 > specific activity > 5)”. This molecule came in with an IC50 under setting [1] of 10 to 100 nM.

As for `CC12COC(c3ccccc3)O[C@H]1CC[C@@]1(C)C2C[C@H](OC(=O)c2cccc(Cl)c2)[C@@]2(C)Oc3cc(-c4cccnc4)oc(=O)c3[C@H](O)C12` (stereo partly drawn) [PRD 050, 1,11-O-benzylidene-7-O-m-chlorobenzoyl-1,7,11-trideacetylpyripyropene A], the “Specific activity: (inhibitory activity of test compound)/(inhibitory activity of pyripyropene A)” value is reported as “+++ (50 > specific activity > 10)”. Further, the IC50 under setting [1] lay in the range of 10 to 100 nM.

For the molecule `CC(=O)OCC1(C)C2C[C@H](OC(=O)Oc3ccc(Cl)cc3)[C@@]3(C)Oc4cc(-c5cccnc5)oc(=O)c4[C@H](O)C3[C@@]2(C)CC[C@@H]1OC(C)=O` (stereo partly drawn) [PRD 058, 7-O-p-chlorophenoxycarbonyl-7-deacetylpyripyropene A], the “Specific activity: (inhibitory activity of test compound)/(inhibitory activity of pyripyropene A)” value is recorded as “+++ (50 > specific activity > 10)”. Under setting [1], the IC50 was 10 to 100 nM.

With `CC(=O)OCC1(C)C2C[C@@H](N=[N+]=[N-])[C@@]3(C)Oc4cc(-c5cccnc5)oc(=O)c4[C@H](O)C3[C@@]2(C)CC[C@@H]1OC(C)=O` (stereo partly drawn) [PRD 062, 7-(R)-azide-7-(S)-deacetylpyripyropene A], the “Specific activity: (inhibitory activity of test compound)/(inhibitory activity of pyripyropene A)” value is listed as “+ (5 > specific activity > 1)”. The same molecule returned an IC50 under setting [1] of 100 to 1000 nM.

Regarding `CC(=O)OCC1(C)C2C[C@H](OC(=O)c3cccc(C)c3)[C@@]3(C)Oc4cc(-c5cccnc5)oc(=O)c4[C@H](O)C3[C@@]2(C)CC[C@@H]1OC(C)=O` (stereo partly drawn) [PRD 008, 7-m-methylbenzoyl-7-deacetylpyripyropene A], the “Specific activity: (inhibitory activity of test compound)/(inhibitory activity of pyripyropene A)” value is “+++ (50 > specific activity > 10)”.

Consider `CC(=O)OCC1(C)C2C[C@H](OC(=O)CCN3CCN(C)CC3)[C@@]3(C)Oc4cc(-c5cccnc5)oc(=O)c4[C@H](O)C3[C@@]2(C)CC[C@@H]1OC(C)=O` (stereo partly drawn) [PRD 104, 7-O-3-(4-methylpiperazin-1-yl)propionyl-7-deacetylpyripyropene A], for which the “Specific activity: (inhibitory activity of test compound)/(inhibitory activity of pyripyropene A)” value is on record as “+ (5 > specific activity > 1)”. The molecule further displayed an IC50 under setting [1] of 100 to 1000 nM.

Regarding `COc1ccccc1C(=O)O[C@H]1CC2C3(C)COC(c4ccccc4)O[C@H]3CC[C@]2(C)C2[C@@H](O)c3c(cc(-c4cccnc4)oc3=O)O[C@@]21C` (stereo partly drawn) [PRD 042, 1,11-O-benzylidene-7-O-o-methoxybenzoyl-1,7,11-trideacetylpyripyropene A], the “Specific activity: (inhibitory activity of test compound)/(inhibitory activity of pyripyropene A)” value is on record as “+++ (50 > specific activity > 10)”. Under setting [1], this molecule showed an IC50 of 10 to 100 nM.

Consider `CC(=O)OCC1(C)C2C[C@@H](I)[C@@]3(C)Oc4cc(-c5cccnc5)oc(=O)c4[C@H](O)C3[C@@]2(C)CC[C@@H]1OC(C)=O` (stereo partly drawn) [PRD 064, 7-(R)-iodo-7-(S)-deacetylpyripyropene A], for which the “Specific activity: (inhibitory activity of test compound)/(inhibitory activity of pyripyropene A)” value was “+ (5 > specific activity > 1)”. The molecule also returned an IC50 under setting [1] of 100 to 1000 nM.

For `CC12COC(c3ccccc3)O[C@H]1CC[C@@]1(C)C2C[C@H](OC(=O)c2ccc([N+](=O)[O-])cc2)[C@@]2(C)Oc3cc(-c4cccnc4)oc(=O)c3[C@H](O)C12` (stereo partly drawn) [PRD 045, 1,11-O-benzylidene-7-O-p-nitrobenzoyl-1,7,11-trideacetylpyripyropene A], the “Specific activity: (inhibitory activity of test compound)/(inhibitory activity of pyripyropene A)” value is “++ (10 > specific activity > 5)”. Also, under setting [1], the IC50 fell in the range of 10 to 100 nM.

As for `CC(=O)OCC1(C)C2C[C@H](OC(=O)c3ccc4c(c3)OC(F)(F)O4)[C@@]3(C)Oc4cc(-c5cccnc5)oc(=O)c4[C@H](O)C3[C@@]2(C)CC[C@@H]1OC(C)=O` (stereo partly drawn) [PRD 036, 7-2,2-difluorobenzo[d][1,3]dioxol-5-carboxyl-7-deacetylpyripyropene A], the “Specific activity: (inhibitory activity of test compound)/(inhibitory activity of pyripyropene A)” value is recorded as “++ (10 > specific activity > 5)”. The IC50 under setting [1] lay within 10 to 100 nM.

In the case of `CSc1cccc(C(=O)O[C@H]2CC3C(C)(COC(C)=O)[C@@H](OC(C)=O)CC[C@]3(C)C3[C@@H](O)c4c(cc(-c5cccnc5)oc4=O)O[C@@]32C)c1` (stereo partly drawn) [PRD 023, 7-m-methylthiobenzoyl-7-deacetylpyripyropene A], the “Specific activity: (inhibitory activity of test compound)/(inhibitory activity of pyripyropene A)” value is on record as “+++ (50 > specific activity > 10)”. For the same molecule, the IC50 under setting [1] lay within 10 to 100 nM.

With `CC12COC(c3ccccc3)O[C@H]1CC[C@@]1(C)C2C[C@H](OC(=O)c2ccccc2C#N)[C@@]2(C)Oc3cc(-c4cccnc4)oc(=O)c3[C@H](O)C12` (stereo partly drawn) [PRD 039, 1,11-O-benzylidene-7-O-o-cyanobenzoyl-1,7,11-trideacetylpyripyropene A], the “Specific activity: (inhibitory activity of test compound)/(inhibitory activity of pyripyropene A)” value was “+++ (50 > specific activity > 10)”.

For the molecule `CC(=O)OCC1(C)C2C[C@H](OC(=O)c3cccc4ccccc34)[C@@]3(C)Oc4cc(-c5cccnc5)oc(=O)c4[C@H](O)C3[C@@]2(C)CC[C@@H]1OC(C)=O` (stereo partly drawn) [PRD 038, 7-1-naphthoyl-7-deacetylpyripyropene A], the “Specific activity: (inhibitory activity of test compound)/(inhibitory activity of pyripyropene A)” value is listed as “++ (10 > specific activity > 5)”. The molecule also displayed an IC50 under setting [1] of 10 to 100 nM.

As for `CC12COC(c3ccccc3)O[C@H]1CC[C@@]1(C)C2C[C@H](OC(=O)c2ccccc2Cl)[C@@]2(C)Oc3cc(-c4cccnc4)oc(=O)c3[C@H](O)C12` (stereo partly drawn) [PRD 049, 1,11-O-benzylidene-7-O-o-chlorobenzoyl-1,7,11-trideacetylpyripyropene A], the “Specific activity: (inhibitory activity of test compound)/(inhibitory activity of pyripyropene A)” value is “+++ (50 > specific activity > 10)”. The IC50 under setting [1] was in the range of 10 to 100 nM.

Regarding `CC12COC(c3ccccc3)O[C@H]1CC[C@@]1(C)C2C[C@H](OC(=O)c2ccc(C=O)cc2)[C@@]2(C)Oc3cc(-c4cccnc4)oc(=O)c3[C@H](O)C12` (stereo partly drawn) [PRD 054, 1,11-O-benzylidene-7-O-p-formylbenzoyl-1,7,11-trideacetylpyripyropene A], the “Specific activity: (inhibitory activity of test compound)/(inhibitory activity of pyripyropene A)” value was “+ (5 > specific activity > 1)”. This molecule also returned an IC50 under setting [1] of 10 to 100 nM.

As for `CC(=O)OCC1(C)C2C[C@H](OC(=O)Cn3cc(C)c(=O)[nH]c3=O)[C@@]3(C)Oc4cc(-c5cccnc5)oc(=O)c4[C@H](O)C3[C@@]2(C)CC[C@@H]1OC(C)=O` (stereo partly drawn) [PRD 090, 7-O-1-thymineacetyl-7-deacetylpyripyropene A], the “Specific activity: (inhibitory activity of test compound)/(inhibitory activity of pyripyropene A)” value is “+ (5 > specific activity > 1)”. The same molecule displayed an IC50 under setting [1] of 100 to 1000 nM.

In the case of `CC(=O)OCC1(C)C2C[C@H](OC(=O)CO)[C@@]3(C)Oc4cc(-c5cccnc5)oc(=O)c4[C@H](O)C3[C@@]2(C)CC[C@@H]1OC(C)=O` (stereo partly drawn) [PRD 107, 7-O-hydroxyacetyl-7-deacetylpyripyropene A], the “Specific activity: (inhibitory activity of test compound)/(inhibitory activity of pyripyropene A)” value is given as “+ (5 > specific activity > 1)”. For the same molecule, under setting [1], the IC50 was 100 to 1000 nM.

Regarding `CC(=O)OCC1(C)C2C[C@H](OC(=O)C3CCCCC3)[C@@]3(C)Oc4cc(-c5cccnc5)oc(=O)c4[C@H](O)C3[C@@]2(C)CC[C@@H]1OC(C)=O` (stereo partly drawn) [PRD 021, 7-cyclohexanecarboxyl-7-deacetylpyripyropene A], the IC50 was below 10 nM and the “Specific activity: (inhibitory activity of test compound)/(inhibitory activity of pyripyropene A)” value is “++++ (100 > specific activity > 50)”.

For the molecule `CC12COC(c3ccccc3)O[C@H]1CC[C@@]1(C)C2C[C@H](OC(=O)c2ccc(Cl)cc2)[C@@]2(C)Oc3cc(-c4cccnc4)oc(=O)c3[C@H](O)C12` (stereo partly drawn) [PRD 051, 1,11-O-benzylidene-7-O-p-chlorobenzoyl-1,7,11-trideacetylpyripyropene A], the “Specific activity: (inhibitory activity of test compound)/(inhibitory activity of pyripyropene A)” value was “++ (10 > specific activity > 5)”. This molecule also registered a half-maximal inhibitory concentration (IC50) under setting [1] of 10 to 100 nM.
